Reference: patent US20220324835A1 (Nurix Therapeutics, Inc., priority 2018, published 2022)

How the values were obtained:
Cbl-b [1] = target: T1, Cbl-b (Homo sapiens, UniProt Q13191); assay: Cbl-b inhibition assay (Cbl-b activity assay, FRET, Biological Example 1; 100 mM NaCl, 60 nM Src kinase); assay type: biochemical; details: upper bound stated in text lists; read-out: IC50 values in the Cbl-b inhibition assay of Biological Example 1
Procedure, shortened: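 Steps: Src kinase phosphorylates N-terminal biotinylated Avi-tagged Cbl-b; phosphorylated Cbl-b binds Bodipy-fluorescein ubiquitin-loaded UbcH5B; streptavidin-terbium on Cbl-b sits close to the fluorescein label, producing FRET. Inhibitors block UbcH5B-Ub binding.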

T-cell [2] = assay: CD25 cell surface staining on T-cells stimulated with anti-CD3 antibody alone (Biological Example 2); assay type: cell-based; details: primary human total T-cells, baseline = anti-CD3/anti-CD28 stimulated cells without inhibitor, read-out: CD25 staining, Anti-CD3 stimulation, fold change over baseline; for fold induction at 1 µM: 1 μM compound; for fold induction at 8 µM: 8 μM compound
T-cell [3] = assay: CD25 cell surface staining on T-cells co-stimulated with anti-CD3 and anti-CD28 antibody (Biological Example 2); assay type: cell-based, human; details: Homo sapiens, T-cell, primary human total T-cells, baseline = anti-CD3/anti-CD28 stimulated cells without inhibitor, read-out: CD25 staining, Anti-CD3/Anti-CD28 stimulation, fold change over baseline; for fold induction at 0.3 µM: 0.3 μM compound; for fold induction at 1 µM: 1 μM compound; for fold induction at 4 µM: 4 μM compound
Procedure, shortened: (§1)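 Values are fold-change over baseline: readings (IL-2 release, CD25 staining) from inhibitor-treated T-cells divided against untreated cells […]. No detailed procedure stated.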

T-cell [4] = assay: IL-2 secretion from T-cells co-stimulated with anti-CD3 and anti-CD28 antibody (Biological Example 2); assay type: cell-based, human; details: Homo sapiens, T-cell, primary human total T-cells, baseline = anti-CD3/anti-CD28 stimulated cells without inhibitor, read-out: IL-2 secretion, Anti-CD3/Anti-CD28 stimulation, fold change over baseline; for fold induction at 0.3 µM: 0.3 μM compound; for fold induction at 1 µM: 1 μM compound; for fold induction at 4 µM: 4 μM compound
Procedure, shortened: as §1

T-cell [5] = assay: IL-2 secretion from T-cells stimulated with anti-CD3 antibody alone (Biological Example 2); assay type: cell-based; details: primary human total T-cells, read-out: IL-2 secretion, Anti-CD3 stimulation, fold change over baseline; for fold induction at 1 µM: 1 μM compound; for fold induction at 8 µM: 8 μM compound
Cbl-b [6] = target: T1, Cbl-b; assay: Cbl-b activity assay (Cbl-b inhibition assay), TR-FRET of Cbl-b interaction with UbcH5B-Ub; assay type: biochemical; details: assay buffer with 100 mM NaCl, 60 nM Src kinase; read-out: Cbl-b activity IC50
Procedure, shortened: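 Compound-treated Cbl-b was incubated 1.5 h with Src kinase (60 nM final; 30 nM for asterisked values, which also used 50 mM instead of 100 mM NaCl), 1 mM ATP and 5 mM MgCl2. Binding to fluorescent Ub-loaded UbcH5B (C85K mutant) was then read by TR-FRET after 1 h more.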

T1 sequence (Q13191 36-427): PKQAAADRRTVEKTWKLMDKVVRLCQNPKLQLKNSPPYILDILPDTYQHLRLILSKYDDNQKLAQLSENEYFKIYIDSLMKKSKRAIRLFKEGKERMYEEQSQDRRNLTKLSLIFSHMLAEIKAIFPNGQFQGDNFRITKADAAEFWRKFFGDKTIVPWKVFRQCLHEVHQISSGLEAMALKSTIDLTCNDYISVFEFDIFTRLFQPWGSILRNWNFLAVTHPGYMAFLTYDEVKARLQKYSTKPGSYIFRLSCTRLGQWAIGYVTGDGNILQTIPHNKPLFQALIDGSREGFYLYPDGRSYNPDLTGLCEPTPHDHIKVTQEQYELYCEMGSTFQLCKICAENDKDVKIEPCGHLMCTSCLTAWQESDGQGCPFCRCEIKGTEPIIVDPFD

| SMILES | IC50 (Cbl-b [1]) [µM] | fold induction at 1 µM (T-cell [2]) | fold induction at 8 µM (T-cell [2]) | fold induction at 0.3 µM (T-cell [3]) | fold induction at 1 µM (T-cell [3]) | fold induction at 4 µM (T-cell [3]) | fold induction at 0.3 µM (T-cell [4]) | fold induction at 1 µM (T-cell [4]) | fold induction at 4 µM (T-cell [4]) | fold induction at 1 µM (T-cell [5]) | fold induction at 8 µM (T-cell [5]) | IC50 (Cbl-b [6]) [µM] |
| --- | --- | --- | --- | --- | --- | --- | --- | --- | --- | --- | --- | --- |
| C[C@@H]1CN(C)CCN1c1cc2c(c(C(F)(F)F)c1)CN(c1cccc([C@@](C)(F)C(F)(F)c3nncn3C)c1)C2=O [Compound 443, 6-((R)-2,4-Dimethylpiperazin-1-yl)-2-(3-((R)-1,1,2-trifluoro-1-(4-methyl-4H-1,2,4-triazol-3-yl)propan-2-yl)phenyl)-4-(trifluoromethyl)isoindolin-1-one] | ≤ 0.1 | 0.801 to 1 | > 1 | 1.01 to 1.3 | 1.01 to 1.3 | 1.31 to 1.5 | 1.01 to 2.5 | 1.01 to 2.5 | 2.51 to 5 | < 0.05 | 0.101 to 0.15 | < 0.1 |
| CN(c1cc2c(c(C(F)(F)F)c1)CN(c1cccc([C@@](C)(F)C(F)(F)c3nncn3C)c1)C2=O)[C@@H]1CNC[C@@H]1F [Example 548, 6-(((3R,4S)-4-fluoropyrrolidin-3-yl)(methyl)amino)-2-(3-((R)-1,1,2-trifluoro-1-(4-methyl-4H-1,2,4-triazol-3-yl)propan-2-yl)phenyl)-4-(trifluoro-methyl)isoindolin-1-one] | ≤ 0.3 | 0.601 to 0.8 |  | 1.01 to 1.3 | 1.01 to 1.3 |  | 1.01 to 2.5 | 2.51 to 5 |  | 0.101 to 0.15 |  | 0.1 to 0.3 |
| CC[C@H](c1cc2c(c(C(F)(F)F)c1)CN(c1cccc(C3(Cc4nncn4C)COC3)c1)C2=O)N1CC[C@H](F)C1 [Example 546, 6-((R)-1-((S)-3-fluoropyrrolidin-1-yl)propyl)-2-(3-(3-((4-methyl-4H-1,2,4-triazol-3-yl)methyl)oxetan-3-yl)phenyl)-4-(trifluoromethyl)isoindolin-1-one] | ≤ 0.1 | > 1 |  | 1.51 to 1.75 | 1.51 to 1.75 |  | > 7.5 | > 7.5 |  | > 0.201 |  | < 0.1 |
| Cc1cc(C(=O)Nc2cccc(C3(Cc4nncn4C)CC(F)(F)C3)c2)nc(C2CC2)n1 [Compound 526, 2-cyclopropyl-N-(3-(3,3-difluoro-1-((4-methyl-4H-1,2,4-triazol-3-yl)methyl)cyclobutyl)phenyl)-6-methylpyrimidine-4-carboxamide] | ≤ 0.1 | > 1 |  | 1.01 to 1.3 | 1.01 to 1.3 |  | 5 to 7.5 | > 7.5 |  | > 0.201 |  | < 0.1 |
| CN1CC[C@@H](O)[C@@H](Cc2cc3c(c(C(F)(F)F)c2)CN(c2cccc(C4(Cc5nncn5C)COC4)c2)C3=O)C1 (racemic) [Compound 532, 6-(((cis)-4-hydroxy-1-methylpiperidin-3-yl)methyl)-2-(3-(3-((4-methyl-4H-1,2,4-triazol-3-yl)methyl)oxetan-3-yl)phenyl)-4-(trifluoromethyl)isoindolin-1-one] | ≤ 0.1 | 0.801 to 1 |  | 1.01 to 1.3 | 1.01 to 1.3 |  | 1.01 to 2.5 | 2.51 to 5 |  | 0.101 to 0.15 |  | < 0.1 |
| Cn1cnnc1C[C@@]1(c2cccc(N3Cc4c(cc(CN5CCC6(CC6)C5)cc4C(F)(F)F)C3=O)c2)CCOC1 (single isomer, unassigned) [Compound 517a] | ≤ 0.1 | 0.801 to 1 |  | 1.01 to 1.3 | 1.01 to 1.3 |  | 2.51 to 5 | > 7.5 |  | 0.101 to 0.15 |  | < 0.1 |
| Cn1cnnc1C[C@]1(c2cccc(N3Cc4c(cc(CN5CCC6(CC6)C5)cc4C(F)(F)F)C3=O)c2)CCOC1 (single isomer, unassigned) [Compound 517b] | ≤ 0.1 | > 1 |  | 1.01 to 1.3 | 1.01 to 1.3 |  | > 7.5 | > 7.5 |  | > 0.201 |  | < 0.1 |
| CN1CCN(c2cc3c(c(C(F)(F)F)c2)CN(c2cccc([C@@](C)(F)C(F)(F)c4nncn4C)c2)C3=O)CC1 [Compound 441, (R)-6-(4-Methylpiperazin-1-yl)-2-(3-(1,1,2-trifluoro-1-(4-methyl-4H-1,2,4-triazol-3-yl)propan-2-yl)phenyl)-4-(trifluoromethyl)isoindolin-1-one] | ≤ 0.3 | 0.601 to 0.8 | > 1 | 1.01 to 1.3 | 1.01 to 1.3 | 1.01 to 1.3 | 1.01 to 2.5 | 1.01 to 2.5 | 2.51 to 5 | 0.051 to 0.1 | 0.151 to 0.2 | 0.1 to 0.3 |
| Cn1cnnc1CC1(c2cccc(NC(=O)c3cc(CN4C[C@@H]5[C@H](C4)C5(F)F)cc(C4CC4)n3)c2)COC1 [Compound 499] | ≤ 0.1 | > 1 |  | 1.31 to 1.5 | 1.31 to 1.5 |  | > 7.5 | > 7.5 |  | > 0.201 |  | < 0.1 |
| Cc1cc(C(=O)Nc2cccc([C@]3(Cc4nncn4C)CCOC3)c2)nc(C2CC2)n1 (single isomer, unassigned) [Compound 534a] | ≤ 0.3 | 0.601 to 0.8 |  | 1.01 to 1.3 | 1.01 to 1.3 |  | 1.01 to 2.5 | 2.51 to 5 |  | 0.051 to 0.1 |  | 0.1 to 0.3 |
| C[C@H]1C=CCN1Cc1cc2c(c(C(F)(F)F)c1)CN(c1cccc(C3(Cc4nncn4C)COC3)c1)C2=O [Compound 427] | ≤ 0.1 | > 1 | > 1 | 1.31 to 1.5 | 1.51 to 1.75 | 1.51 to 1.75 | > 7.5 | > 7.5 | > 7.5 | > 0.201 | > 0.201 | < 0.1 |
| C[C@H](Cc1nocc1C(F)(F)F)c1cccc(N2Cc3c(cc(CN4CC[C@H](F)C4)cc3C(F)(F)F)C2=O)c1 [Compound 485, 6-[[(3S)-3-fluoropyrrolidin-1-yl]methyl]-4-(trifluoromethyl)-2-[3-[(2R)-1-[4-(trifluoromethyl)-1,2-oxazol-3-yl]propan-2-yl]phenyl]-2,3-dihydro-1H-isoindol-1-one] | ≤ 0.3 | 0.601 to 0.8 | > 1 | 1.01 to 1.3 | 1.01 to 1.3 | 1.31 to 1.5 | 1.01 to 2.5 | 1.01 to 2.5 | 2.51 to 5 | < 0.05 | 0.101 to 0.15 | 0.1 to 0.3 |
| Cc1cc(C(=O)Nc2cccc(-c3c(-c4nncn4C)cnn3C)c2)nc(C2CC2)n1 [Compound 522, 2-cyclopropyl-6-methyl-N-(3-(l-methyl-4-(4-methyl-4H-1,2,4-triazol-3-yl)-1H-pyrazol-5-yl)phenyl)pyrimidine-4-carboxamide] | ≤ 0.3 | 0.601 to 0.8 |  | 1.01 to 1.3 | 1.01 to 1.3 |  | 1.01 to 2.5 | 1.01 to 2.5 |  | 0.101 to 0.15 |  | 0.1 to 0.3 |
